From patent publication US10065990B2, “Cyclic peptide compound, and preparation method, pharmaceutical composition and use thereof” (HANGZHOU GUANYU BIO-MEDICAL CO., LTD, priority 2013, dated 2018)
pIC50: −log10 of the molar value. Like-named read-outs stand apart in the source and are kept apart here.

Key:
[1] = biological target: HDAC1 (Homo sapiens, UniProt Q13547); experiment: HDAC biochemical activity measurement (fluorescent substrate deacetylation);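 also: fluorogenic acetyl-lysine substrate (20 µM) deacetylated by HDAC1, then developer releases fluorophore read at 360 nm excitation and 460 nm emission, inhibitor incubated 30 min at 37 °C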
Sequence of HDAC1 (Q13547 whole entry, species assumed): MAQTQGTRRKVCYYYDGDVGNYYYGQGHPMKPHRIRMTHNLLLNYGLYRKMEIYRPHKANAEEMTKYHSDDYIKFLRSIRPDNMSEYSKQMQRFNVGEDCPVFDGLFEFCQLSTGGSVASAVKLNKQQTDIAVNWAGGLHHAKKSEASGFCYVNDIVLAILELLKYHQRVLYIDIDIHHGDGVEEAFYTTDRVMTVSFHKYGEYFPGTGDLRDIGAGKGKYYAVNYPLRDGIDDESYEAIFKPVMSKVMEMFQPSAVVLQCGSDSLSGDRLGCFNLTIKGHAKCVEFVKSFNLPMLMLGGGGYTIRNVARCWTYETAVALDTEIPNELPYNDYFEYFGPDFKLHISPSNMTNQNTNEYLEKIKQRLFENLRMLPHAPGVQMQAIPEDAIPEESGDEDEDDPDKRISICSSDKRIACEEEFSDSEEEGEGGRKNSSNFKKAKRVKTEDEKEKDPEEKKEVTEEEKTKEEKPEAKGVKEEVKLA

[2] = biological target: HDAC2 (Homo sapiens, UniProt Q92769); experiment: as above; conditions: 37° C. 30 minutes;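 also: HDAC2 enzyme with an acetyl-lysine fluorescent substrate, then developer added, fluorescence read at excitation 360 nm and emission 460 nm, inhibition measured across several compound concentrations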
Sequence of HDAC2 (Q92769 whole entry, species assumed): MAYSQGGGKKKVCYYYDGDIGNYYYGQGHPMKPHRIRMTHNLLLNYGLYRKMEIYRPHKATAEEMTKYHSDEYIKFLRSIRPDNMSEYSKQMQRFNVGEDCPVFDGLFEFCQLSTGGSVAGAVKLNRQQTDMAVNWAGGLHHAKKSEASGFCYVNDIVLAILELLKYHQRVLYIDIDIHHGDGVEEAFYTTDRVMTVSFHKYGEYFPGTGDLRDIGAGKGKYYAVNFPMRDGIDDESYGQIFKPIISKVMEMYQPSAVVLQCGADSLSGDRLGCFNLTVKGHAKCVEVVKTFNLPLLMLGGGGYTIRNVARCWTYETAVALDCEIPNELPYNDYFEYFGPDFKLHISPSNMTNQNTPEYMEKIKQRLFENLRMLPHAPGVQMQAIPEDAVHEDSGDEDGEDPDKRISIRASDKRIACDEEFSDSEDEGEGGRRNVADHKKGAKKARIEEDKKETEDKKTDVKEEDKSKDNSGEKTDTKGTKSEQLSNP

[3] = biological target: T1, HDAC7 (Homo sapiens, UniProt Q8WUI4); experiment: as above; conditions: HDAC7; 37° C. 30 minutes;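 also: fluorogenic deacetylation assay using acetyl-lysine substrate at 20 µM, enzyme and compound incubated 30 min at 37 °C, then developer added, fluorescence read at 360/460 nm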
T1 sequence (Q8WUI4 1-952): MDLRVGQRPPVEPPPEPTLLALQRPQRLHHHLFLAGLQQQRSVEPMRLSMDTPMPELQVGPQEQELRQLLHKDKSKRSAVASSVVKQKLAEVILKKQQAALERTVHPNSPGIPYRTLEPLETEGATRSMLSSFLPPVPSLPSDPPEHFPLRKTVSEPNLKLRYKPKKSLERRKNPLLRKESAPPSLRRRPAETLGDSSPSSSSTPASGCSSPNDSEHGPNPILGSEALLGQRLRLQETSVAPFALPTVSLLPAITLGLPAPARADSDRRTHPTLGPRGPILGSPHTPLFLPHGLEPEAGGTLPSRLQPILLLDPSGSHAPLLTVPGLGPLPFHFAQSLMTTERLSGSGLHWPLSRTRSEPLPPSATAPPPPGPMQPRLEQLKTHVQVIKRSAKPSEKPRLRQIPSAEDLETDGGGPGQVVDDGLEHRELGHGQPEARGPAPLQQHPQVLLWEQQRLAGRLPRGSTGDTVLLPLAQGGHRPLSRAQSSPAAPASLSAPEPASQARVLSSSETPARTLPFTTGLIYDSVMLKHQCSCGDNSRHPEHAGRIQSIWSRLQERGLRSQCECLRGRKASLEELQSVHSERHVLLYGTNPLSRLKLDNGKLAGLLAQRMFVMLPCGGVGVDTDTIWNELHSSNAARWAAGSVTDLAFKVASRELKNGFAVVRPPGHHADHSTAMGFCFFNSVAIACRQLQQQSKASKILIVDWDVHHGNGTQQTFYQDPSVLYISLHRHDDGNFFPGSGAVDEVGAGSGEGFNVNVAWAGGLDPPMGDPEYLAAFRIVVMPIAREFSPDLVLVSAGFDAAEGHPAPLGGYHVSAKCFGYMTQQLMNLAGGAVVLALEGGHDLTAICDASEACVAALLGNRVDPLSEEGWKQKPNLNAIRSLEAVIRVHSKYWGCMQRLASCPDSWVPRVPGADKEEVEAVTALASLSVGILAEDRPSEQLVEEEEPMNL

[4] = test system: DU145 (human prostate cancer cells); experiment: MTT cancer cell growth inhibition; format: cell-based; conditions: Homo sapiens, DU-145, 72 h, MTT
In short: (§1)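 MTT viability, 570 nm, GI50. Cells 1500/well; compound 72 h at final 10^−5–10^−10 M in triplicate.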

[5] = test system: SGC-7901 (human gastric cancer cells); experiment: MTT cancer cell growth inhibition; format: cell-based; conditions: Homo sapiens, SGC-7901, 72 h, MTT, 72 hours incubation, SGC-7901 cells; read-out: GI50 SGC-7901
In short: as §1

[6] = test system: U937 (human leukemia cells); experiment: MTT cancer cell growth inhibition; format: cell-based; conditions: Homo sapiens, U-937, 72 h, MTT
In short: as §1

[7] = test system: Hela (human cervical cancer cells); experiment: MTT cancer cell growth inhibition; format: cell-based; conditions: Homo sapiens, HeLa, 72 h, MTT
In short: as §1

[8] = test system: MDA-MB-231 (breast cancer cells); experiment: MTT cancer cell growth inhibition; format: cell-based; conditions: Homo sapiens, MDA-MB-231, 72 h, read-out: GI50 MDA-MB-231, MTT, 72 hours incubation, MDA-MB-231 cells
In short: as §1

[9] = test system: MCF-7 (human breast cancer cells); experiment: MTT cancer cell growth inhibition; format: cell-based; conditions: Homo sapiens, MCF7, 72 h
In short: as §1

[10] = test system: Huh-7 (human hepatoma cells); experiment: MTT cancer cell growth inhibition; format: cell-based; conditions: Homo sapiens, Huh-7, 72 h, MTT, 72 hours incubation, Huh-7 cells; read-out: GI50 Huh-7
In short: as §1

[11] = test system: Bel-7402 (human hepatoma cells); experiment: MTT cancer cell growth inhibition; format: cell-based; conditions: Homo sapiens, Bel-7402, 72 h, MTT, 72 hours incubation, Bel-7402 cells; read-out: GI50 Bel-7402
In short: as §1

[12] = test system: BGC-823 (human gastric cancer cells); experiment: MTT cancer cell growth inhibition; format: cell-based; conditions: Homo sapiens, BGC-823, 72 h, MTT
In short: as §1

[13] = test system: A549 (human lung cancer cells); experiment: MTT cancer cell growth inhibition; format: cell-based; conditions: Homo sapiens, A549, 72 h, MTT, 72 hours incubation; read-out: GI50 A54
In short: as §1

[14] = test system: KBM5-T315I (human chronic myelogenous leukemia); experiment: MTT cancer cell growth inhibition; format: cell-based; conditions: Homo sapiens, 72 h, MTT, 72 hours incubation, KBM5-T315I cells; read-out: GI50 KBM5-T315I
In short: as §1

[15] = test system: HT1080 (human fibrosarcoma cells); experiment: MTT cancer cell growth inhibition; format: cell-based; conditions: Homo sapiens, HT-1080, 72 h, MTT, 72 hours incubation; read-out: GI50 HT1
In short: as §1

[16] = test system: MOLT-4 (human acute lymphoblastic leukemia cells); experiment: MTT cancer cell growth inhibition; format: cell-based; conditions: Homo sapiens, MOLT-4, 72 h, MTT, 72 hours incubation; read-out: GI50 Mol
In short: as §1

[17] = HDAC1, 37° C. 30 minutes, read-out: IC50 HDAC1
[18] = Table 3, read-out: IC50 HDAC1, D (non-substituent)
[19] = 72 hours incubation, read-out: GI50 Hela
[20] = 72 hours incubation, read-out: GI50 MCF
[21] = 72 hours incubation, read-out: GI50 BG
[22] = 72 hours incubation, read-out: GI50 Du1
[23] = 72 hours incubation, read-out: GI50 U93

| SMILES | pIC50 [1, 17] | pIC50 [1, 18] | pIC50 [2] | IC50 HDAC7 [3] | GI50 [5] [nM] | GI50 [7, 19] [nM] | GI50 [8] [nM] | GI50 [9, 20] [nM] | GI50 [10] [nM] | GI50 [11] [nM] | GI50 [12, 21] [nM] | GI50 [13] [nM] | GI50 [14] [nM] | GI50 [15] [nM] | GI50 [16] [nM] | also measured |
| --- | --- | --- | --- | --- | --- | --- | --- | --- | --- | --- | --- | --- | --- | --- | --- | --- |
| C/C=C1\NC(=O)c2cccc(n2)CNC(=O)C[C@@H](/C=C/CCSC(=O)CCCCCCC)OC(=O)[C@H](C(C)C)NC1=O [Compound 1] | 7.39 | 7.39 | 7.66 | no activity | 53 | 20 | 95 | 30 | 33 | 29 | 60 | 10 | 46 | 10 |  | pIC50 ([1]; Table 2, read-out: IC50 HDAC1, a (compounds of the present invention)): > 7.30; GI50 ([4]; 72 hours, present invention, read-out: GI50 Du145, a): 4 nM; GI50 ([6]; 72 hours, present invention, read-out: GI50 U937, a): 5 nM; GI50 ([7]; 72 hours, present invention, read-out: GI50 Hela, a): 20 nM; GI50 ([9]; 72 hours, present invention, read-out: GI50 MCF7, a): 30 nM; GI50 ([12]; 72 hours, present invention, read-out: GI50 BGC823, a): 60 nM |
| C/C=C1\NC(=O)c2cccc(n2)CNC(=O)C[C@@H](/C=C/CCSC(=O)CCCC)OC(=O)[C@H](C(C)C)NC1=O [Compound 4] | 6.74 | 6.74 | 6.60 | no activity | 34 | 50 | 86 | 40 | 86 | 92 | 60 | 50 | 22 | 70 |  |  |
| C/C=C1\NC(=O)c2cccc(n2)CNC(=O)C[C@@H](/C=C/CCSC(=O)CCC)OC(=O)[C@H](C(C)C)NC1=O [Compound 5] | 7.13 | 7.13 | 7.28 | no activity | 43 | 50 | 82 | 40 | 72 | 93 | 60 | 50 | 33 | 70 |  |  |
| C/C=C1\NC(=O)c2cccc(n2)CNC(=O)C[C@@H](/C=C/CCSC(=O)CC)OC(=O)[C@H](C(C)C)NC1=O [Compound 6] | 7.12 | 7.12 | 7.23 | no activity | 51 | 60 | 84 | 60 | 58 | 86 | 70 | 60 | 41 | 80 |  |  |
| C/C=C1\NC(=O)c2cccc(n2)CNC(=O)C[C@@H](/C=C/CCSC=O)OC(=O)[C@H](C(C)C)NC1=O [Compound 8] | 6.82 | 6.82 | 6.79 | no activity | 43 | 70 | 93 | 80 | 61 | 94 | 90 | 80 | 63 | 90 |  |  |
| C/C=C1\NC(=O)c2cccc(n2)CNC(=O)C[C@@H](/C=C/CCSC(C)=O)OC(=O)[C@H](CC)NC1=O [Compound 10] | 7.04 | 7.04 | 7.17 | no activity | 23 | 70 | 98 | 60 | 51 | 95 | 90 | 60 | 24 | 80 |  |  |
| C/C=C1\NC(=O)c2cccc(n2)CNC(=O)C[C@@H](/C=C/CCSC(C)=O)OC(=O)[C@H](C)NC1=O [Compound 12] | 7.09 | 7.09 | 7.27 | no activity | 36 | 50 | 84 | 60 | 86 | 72 | 90 | 70 | 31 | 60 |  |  |
| C=C1NC(=O)c2cccc(n2)CNC(=O)C[C@@H](/C=C/CCSC(C)=O)OC(=O)[C@H](C(C)C)NC1=O [Compound 19] | 6.75 | 6.75 | 7.20 | no activity | 52 | 60 | 95 | 80 | 92 | 97 | 90 | 90 | 24 | 70 | 1900 |  |
| C/C=C1\NC(=O)c2cc(F)cc(n2)CNC(=O)C[C@@H](/C=C/CCSC(=O)CCCCCCC)OC(=O)[C@H](Cc2ccccc2)NC1=O [Compound 70] | 7.48 |  | 7.37 | no activity | 43 | 90 | 36 | 30 | 36 |  | 50 | 40 | 37 |  | 30 | pIC50 ([1]; Table 3, column C, read-out: IC50 HDAC1, C (six-membered ring with substituents)): 7.48; GI50 [4, 22]: 50 nM; GI50 [6, 23]: 60 nM |
| C/C=C1\NC(=O)c2cccc(n2)CCNC(=O)C[C@@H](/C=C/CCS)OC(=O)[C@H](C(C)C)NC1=O [Compound 146] | 7.14 |  | 7.47 | no activity | 35 | 40 | 56 | 50 | 65 | 35 |  | 30 | 23 | 80 | 80 | GI50 [4, 22]: 50 nM; GI50 [6, 23]: 30 nM |
| C/C=C1\NC(=O)c2nccc(n2)CNC(=O)C[C@@H](/C=C/CCSC(C)=O)OC(=O)[C@H](C)NC1=O [Example 24] | 7.13 |  | 7.08 | no activity | 18 | 500 | 86 | 50 | 51 | 95 | 220 | 100 | 35 | 40 | 490 | GI50 [4, 22]: 20 nM |
